Data from patent publication US20210106582A1, “COMPOUNDS AND PHARMACEUTICAL COMPOSITIONS THEREOF FOR USE IN THE TREATMENT OF FIBROTIC DISEASES” (Galapagos NV, priority 2017, published 2021).
Several values for one entry are separate records, joined by “and”; a condition that tells them apart may be missing. Equal values may be shown once.

What was measured:
[1] = system: female C57BL/6J mice, lung fibrosis induced by radiation; test: Radiation induced fibrosis mice model; format: in vivo; conditions: individual animals, irradiated lung, CpdA 30 mg/kg QD PO D1-D14
Protocol: Pneumonitis and lung fibrosis are the major radiation-induced complications following thoracic radiotherapy, which is one of the major treatment of lung and breast cancers, lymphomas and hematopoietic transplant conditioning.
The objective of this model is to evaluate the effect of a compound of the invention in lung fibrosis induced by radiation in mice. (Bickelhaupt et al., 2017)
7 weeks old (18/22 gr) female C57BL/6J mice from Charles River (France) are maintained on 12 h light/dark cycle at 22° C. with ad libidum access to tap water and food.
The test compounds are dissolved/suspended in appropriate vehicle prior to using and then kept light-free, under agitation at room temperature.
The dose volume administered is 10 mL/kg and the volume is adapted following mean body weight (BW) of the group as follows: 200 μL if mean BW<22.5 g, 250 μL if mean BW≥22.5 g; 300 μL if mean BW>27.5 g.
On day 1 of week 1, the animals are exposed at the thorax to a 17 Gray irradiation dose, under isoflurane anesthesia. […]
Body weight are recorded once a week, and on Day 14, lung function measurement under anesthesia is realized by Flexivent (Devos et al., 2017) for all groups before sacrifice.
At sacrifice on Day 14, the lungs are collected and fixed in 4% formaldehyde for 24 h before embedding in paraffin. […] The anti-collagen I antibody is detected and amplified by ImmPress kit (Vector Laboratories, Cat. No: MP-7401). The immunostained sections are then scanned (Nanozoomer 2.0HT, Hamamatsu) before quantification by image analysis (CaloPix software, TRIBVN Healthcare). Data are expressed as percentage collagen I area per area of lung tissue.
Values for all mice from the same group are averaged. Data are expressed as mean±sem and are compared with a one-way ANOVA followed by Dunnett multiple comparison post hoc test. […]
Manganese superoxide dismutase (MnSOD), located in mitochondria, catalyzes the conversion of superoxide into H2O2, and is a marker of antioxidant response induced by oxidative stress. MnSOD expression is measured immunohistochemically following a protocol adapted from Inghilleri et al. (Inghilleri et al., 2006).
At sacrifice on Day 14, the lungs are collected and fixed in 4% formaldehyde for 24 h before embedding in paraffin. […] The anti-MnSOD antibody is detected by an anti-rabbit biotinylated antibody (Vector Laboratories, Cat. No: BA-1100) amplified by avidin-biotin peroxidase (Vector Laboratories, Cat. No: PK-6100). […] The immunostained sections counterstained with Gill's hematoxylin are then scanned (Nanozoomer 2.0HT, Hamamatsu) before quantification by image analysis (CaloPix software, TRIBVN Healthcare). Data are expressed as percentage MnSOD stained area per area of lung tissue.

[2] = system: male C57BL/6 mice fed a Methionine and Choline-deficient (MCD) diet; test: MCD model (methionine and choline deficient diet, NASH); format: in vivo; conditions: individual animals, 30 mg/kg q.d. p.o., MCD diet 8 wk
Protocol: The methionine and choline deficient (MCD) diet model is used to produce a severe phenotype of NASH in […] (Santhekadur et al., 2017), and is used to evaluate the compounds of the invention.
At induction, 8 weeks-old male C57BL/6 mice (Janvier Labs, France) maintained at 22° C.±2° C. and humidity at 55%±10%, with a 12-hrs dark/light cycle are fed a standard diet (chow (A04C-10, Safe, France) or a Methionine and Choline-deficient (MCD) diet (EFTD.90262, Ssniff, Soest, Germany) for 8 weeks. All animals have access to filtered tap drinking water.
Four weeks after the induction, the animals are either assigned to a control-group or a test-group.
Test group animals are dosed with the a test compound, i.e. Compound A (CpdA) or Compound B (CpdB), at 30 mg/kg, q.d., p.o. formulated in methylcellulose 0.5%, 1 equivalent HCl. The control groups receives a similar volume of vehicle (10 mL/kg), i.e. the standard diet for control group 1 (C1) and the MCD diet for control group 2 (C2). Mice are randomly assigned to a treatment group according to their body weight in order to ensure a homogenous reparation.
After sacrifice (week 8), the activity of the test compound on the development of NASH is assessed by plasma ALT and AST levels and in liver by histopathological examination of fibrosis and steatosis (Sirius red, Oil Red O), collagen (OH-Pro) and triglycerides content and expression of fibrotic and inflammatory genes.
In addition, the NAS score is determined to further evaluate the compounds with respect to their effect on diet induced NASH. The nonalcoholic fatty liver disease activity scoring (NAS) has been proposed and accepted as a tool to measure changes in NAFLD during therapeutic trials (Brunt et al., 2011; Kleiner et al., 2005).
The NAS score (0-8) is defined as the sum of the steatosis score (0-3), lobular inflammation score (0-3), ballooning score (0-2). A NAS score of ≥5 is indicative of a NASH diagnostic.

## O=c1nc(OC[C@@H]2COCCO2)cc2n1CCc1cc(C#CC3CC3)ccc1-2 [Compound A, 9-Cyclopropylethynyl-2-((S)-1-[1,4]dioxan-2-ylmethoxy)-6,7-dihydro-pyrimido[6,1-a]isoquinolin-4-one]
[1]; Figure 15
  Type I collagen stained area fraction: 16.2% and 14.7% and 11.0% and 13.0% and 8.7% and 8.1% and 6.5% and 8.9% and 9.1% and 8.6%
[1]; Figure 16
  MnSOD stained area fraction: 0.31% and 0.74% and 0.39% and 0.57% (3×) and 0.71% and 0.66% and 0.99% and 0.26%
[2]; NRQ scaled versus disease, Fig 8 Panel B
  TIMP1 NRQ gene expression: 1.0 and 1.1 and 0.4 (3×) and 0.8 and 0.9 and 0.1 and 0.5 and 2.3
[2]; dosing from week 4, Normalised Relative Quantity scaled versus disease, FIG. 8 Panel A
  Col1a NRQ gene expression: 0.3 and 0.8 (2×) and 1.0 and 0.5 and 0.1 and 0.4 and 2.1 and 0.6 and 2.4
[2]; liver, NRQ scaled versus disease, Fig 9 Panel A
  TNfα NRQ gene expression: 0.8 (3×) and 1.4 and 1.0 and 0.7 and 0.5 and 0.1 and 1.5 and 0.4
[2]; liver, NRQ scaled versus disease, Fig 9 Panel B
  CC12 NRQ gene expression: 0.5 (4×) and 1.2 and 0.6 (2×) and 0.7 and 0.2 and 1.0
[2]; total NAS score (0-8), Fig 10
  NAS scoring data: 7.0 (4×) and 6.0 (4×) and 5.0 and 8.0
